This passage reports IC50 results from US20250277012A1 (Protagonist Therapeutics, Inc., priority 2021, published 2025).

Positions of bridges follow the written chain, without caps; N, C: chain ends. Non-standard residues stand in square brackets, D forms with d. Residues, ends and D or L forms follow the SMILES beside them. Groups on a side chain read outwards from the residue. *: point of attachment. X1 = C[N+](C)(CCNC(=O)CCCCCCCCCCCCCCCCC(=O)O)CC(=O)*; X5 = CCCCCCCCCCCCCCCC(=O)NCC[N+](C)(C)CC(=O)*; C18 diacid = O=C(O)CCCCCCCCCCCCCCCCC(=O)*; Dip = N[C@H](C(=O)O)C(c1ccccc1)c1ccccc1; Pro(3S-OH) = O=C(O)[C@H]1NCC[C@@H]1O; Pro(3R-OH) = O=C(O)[C@H]1NCC[C@H]1O; Palmitoyl = CCCCCCCCCCCCCCCC(=O)*; NMeT = CN[C@H](C(=O)O)[C@@H](C)O; 3Pal = N[C@@H](Cc1cccnc1)C(=O)O; β3hF = N[C@H](CC(=O)O)Cc1ccccc1; Aad = N[C@@H](CCCC(=O)O)C(=O)O; NMeK = CN[C@@H](CCCCN)C(=O)O; Isovaleryl = CC(C)CC(=O)*; hSer = N[C@@H](CCO)C(=O)O; dDap = NC[C@@H](N)C(=O)O; Dap = NC[C@H](N)C(=O)O; AEEA = NCCOCCOCC(=O)O; Ahx = NCCCCCC(=O)O

The experiment deals with T1, ferroportin (Homo sapiens, UniProt Q9NP59).
T1 sequence (Q9NP59 1-571): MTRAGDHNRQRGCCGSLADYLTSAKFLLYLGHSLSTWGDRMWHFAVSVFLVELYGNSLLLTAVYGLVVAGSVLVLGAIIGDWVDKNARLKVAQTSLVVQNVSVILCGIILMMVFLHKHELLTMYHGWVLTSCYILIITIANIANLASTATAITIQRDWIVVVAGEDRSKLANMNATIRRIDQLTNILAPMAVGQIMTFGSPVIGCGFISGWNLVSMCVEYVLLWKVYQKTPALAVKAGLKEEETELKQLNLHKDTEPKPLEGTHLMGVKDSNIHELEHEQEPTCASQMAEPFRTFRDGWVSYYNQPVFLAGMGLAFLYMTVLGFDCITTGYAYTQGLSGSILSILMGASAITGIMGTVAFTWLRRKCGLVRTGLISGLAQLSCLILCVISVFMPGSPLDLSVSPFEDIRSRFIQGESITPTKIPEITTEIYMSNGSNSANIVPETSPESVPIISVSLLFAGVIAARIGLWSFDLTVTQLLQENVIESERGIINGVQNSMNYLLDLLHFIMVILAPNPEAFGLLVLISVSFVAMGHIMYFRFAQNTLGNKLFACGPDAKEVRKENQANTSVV
The experiment can be described thus: T47D cell-based ferroportin internalization assay in presence of mouse serum albumin (MSA). The conditions noted are these: Table 6E. Set-up: a human breast carcinoma adherent cell line which endogenously expresses ferroportin; host or cells: T47D. On the procedure:
The potency of the peptides in causing ferroportin internalization was evaluated in a T47D cell-based assay. […] In this internalization assay, the potency of the test peptides was evaluated in presence of serum albumin which is the main protein component in the blood. T47D cells were maintained in RPMI media (containing required amount of fetal bovine serum) and regularly sub-cultured. In preparation for the assay, the cells were seeded in 96-well plates at a density of 80-100 k cells per well in 100 ul volume and allowed to rest overnight. […] Sigma, A3139). The test peptide dilution series were allowed to incubate at room temperature for 30 min. Then the media was aspirated from the 96-well cell plate and test peptide dilution series were added. […] The AF647-conjugated detection peptide was previously verified to bind to ferroportin and cause its internalization. The cells were washed again after a 2 hr incubation in preparation for flow cytometry analysis. The Median Fluorescence Intensity (MFI) of the AF647-positive population was measured (after removing dead cells and non-singlets from the analysis). The MFI values were used to generate a dose-response curve and obtain IC50 potencies for the test peptides.

Where [1] appears, read: T47D internalization assay with MSA.
The mark [2] stands for this setting: T47D internalization assay in presence of mouse serum albumin (MSA).

Take `CCCCCCCCCCCCCCCC(=O)NCCCCCC(=O)NCCCC[C@@H](C(=O)N[C@H](C(=O)N[C@H](CCCCN)C(N)=O)C(c1ccccc1)c1ccccc1)N(C)C(=O)[C@@H]1CSSC[C@H](NC(=O)[C@@H]2CCCN2C(=O)[C@@H](NC(=O)[C@H](Cc2cnc[nH]2)NC(=O)[C@H]([C@@H](C)O)N(C)C(=O)[C@H](CCC(=O)O)NC(=O)CC(C)C)C(c2ccccc2)c2ccccc2)C(=O)N1` [compound 173] (Isovaleryl-E[NMeT]H[Dip]PCC[NMeK]([Ahx-Palmitoyl])[Dip][dK]-NH2; disulfide 6-7): under setting [1], the IC50 lay within 1 to 10 nM.

For `CC(C)CC(=O)N[C@@H](CCC(=O)O)C(=O)N1CC[C@@H](O)[C@H]1C(=O)N[C@@H](Cc1c[nH]cn1)C(=O)N[C@H](C(=O)N1CCC[C@H]1C(=O)N[C@H]1CSSC[C@@H](C(=O)N(C)[C@@H](CCCCNC(=O)CCCCCNC(=O)C[N+](C)(C)CCNC(=O)CCCCCCCCCCCCCCCCC(=O)O)C(=O)N[C@H](C(=O)N(C)[C@@H](CCCCN)C(N)=O)C(c2ccccc2)c2ccccc2)NC1=O)C(c1ccccc1)c1ccccc1` [compound 156] (Isovaleryl-E[Pro(3R-OH)]H[Dip]PCC[NMeK]([Ahx-X1])[Dip][NMeK]-NH2; disulfide 6-7), the IC50 under setting [1] lay in the range of 10 to 100 nM.

As for `CC(C)CC(=O)N[C@@H](CCCC(=O)O)C(=O)N[C@H](C(=O)N[C@@H](Cc1cccnc1)C(=O)N[C@H](C(=O)N1CCC[C@H]1C(=O)N[C@H]1CSSC[C@@H](C(=O)N(C)[C@@H](CCCCNC(=O)COCCOCCNC(=O)COCCOCCNC(=O)[C@H](CN)NC(=O)CCCCCCCCCCCCCCCCC(=O)O)C(=O)N[C@H](CC(=O)N[C@H](CCCCN)C(N)=O)Cc2ccccc2)NC1=O)C(c1ccccc1)c1ccccc1)[C@@H](C)O` [compound 246] (Isovaleryl-[Aad]T[3Pal][Dip]PCC[NMeK]([AEEA-AEEA-Dap-C18 diacid])[β3hF][dK]-NH2; disulfide 6-7), the IC50 under setting [2] is 10 to 100 nM.

Take `CCCCCCCCCCCCCCCC(=O)NCCCCCC(=O)NCCCC[C@@H](C(=O)N[C@H](C(=O)N[C@H](CCCCN)C(N)=O)C(c1ccccc1)c1ccccc1)N(C)C(=O)[C@@H]1CSSC[C@H](NC(=O)[C@@H]2CCCN2C(=O)[C@@H](NC(=O)[C@H](Cc2cnc[nH]2)NC(=O)[C@@H](NC(=O)[C@H](CCO)NC(=O)CC(C)C)[C@@H](C)O)C(c2ccccc2)c2ccccc2)C(=O)N1` [compound 168] (Isovaleryl-[hSer]TH[Dip]PCC[NMeK]([Ahx-Palmitoyl])[Dip][dK]-NH2; disulfide 6-7): the IC50 under setting [1] is 1 to 10 nM.

In the case of `COC(=O)CC[C@H](NC(=O)CC(C)C)C(=O)N[C@H](C(=O)N[C@@H](Cc1c[nH]cn1)C(=O)N[C@H](C(=O)N1CCC[C@H]1C(=O)N[C@H]1CSSC[C@@H](C(=O)N[C@@H](CCCCNC(=O)CCCCCNC(=O)C[N+](C)(C)CCNC(=O)CCCCCCCCCCCCCCCCC(=O)O)C(=O)N[C@H](C(=O)N[C@H](CCCCN)C(N)=O)C(c2ccccc2)c2ccccc2)NC1=O)C(c1ccccc1)c1ccccc1)[C@@H](C)O` [compound 211] (Isovaleryl-E(OMe)TH[Dip]PCCK([Ahx-X1])[Dip][dK]-NH2; disulfide 6-7), the IC50 under setting [1] lay within 10 to 100 nM.

For `CC(C)CC(=O)N[C@@H](CCC(=O)O)C(=O)N1CC[C@@H](O)[C@H]1C(=O)N[C@@H](Cc1c[nH]cn1)C(=O)N[C@H](C(=O)N1CCC[C@H]1C(=O)N[C@H]1CSSC[C@@H](C(=O)N(C)[C@@H](CCCCNC(=O)CCCCCNC(=O)C[N+](C)(C)CCNC(=O)CCCCCCCCCCCCCCCCC(=O)O)C(=O)N[C@H](C(=O)N[C@H](CCCCN)C(N)=O)C(c2ccccc2)c2ccccc2)NC1=O)C(c1ccccc1)c1ccccc1` [compound 191] (Isovaleryl-E[Pro(3R-OH)]H[Dip]PCC[NMeK]([Ahx-X1])[Dip][dK]-NH2; disulfide 6-7), under setting [1], the IC50 fell in the range of 10 to 100 nM.

On to `CCCCCCCCCCCCCCCC(=O)NCC[N+](C)(C)CC(=O)NCCCC[C@@H](C(=O)N[C@H](C(N)=O)C(c1ccccc1)c1ccccc1)N(C)C(=O)[C@@H]1CSSC[C@H](NC(=O)[C@@H]2CCCN2C(=O)[C@@H](NC(=O)[C@H](Cc2cnc[nH]2)NC(=O)[C@@H]2[C@H](O)CCN2C(=O)[C@H](CCC(=O)O)NC(=O)CC(C)C)C(c2ccccc2)c2ccccc2)C(=O)N1` [compound 150] (Isovaleryl-E[Pro(3R-OH)]H[Dip]PCC[NMeK](X5)[Dip]-NH2; disulfide 6-7), for which the IC50 under setting [1] fell in the range of 1 to 10 nM.

Regarding `CC(C)CC(=O)N[C@@H](CCC(=O)O)C(=O)N1CCC[C@H]1C(=O)N[C@@H](Cc1c[nH]cn1)C(=O)N[C@H](C(=O)N1CCC[C@H]1C(=O)N[C@H]1CSSC[C@@H](C(=O)N(C)[C@@H](CCCCNC(=O)CCCCCNC(=O)C[N+](C)(C)CCNC(=O)CCCCCCCCCCCCCCCCC(=O)O)C(=O)N[C@H](C(=O)N[C@H](CCCCN)C(N)=O)C(c2ccccc2)c2ccccc2)NC1=O)C(c1ccccc1)c1ccccc1` [compound 188] (Isovaleryl-EPH[Dip]PCC[NMeK]([Ahx-X1])[Dip][dK]-NH2; disulfide 6-7), under setting [1], the IC50 was over 500 nM.

Consider `CC(C)CC(=O)N[C@@H](CCC(=O)O)C(=O)N[C@H](C(=O)N[C@@H](Cc1c[nH]cn1)C(=O)N[C@H](C(=O)N1CCC[C@H]1C(=O)N[C@H]1CSSC[C@@H](C(=O)N(C)[C@@H](CCCCNC(=O)COCCOCCNC(=O)COCCOCCNC(=O)C[N+](C)(C)CCNC(=O)CCCCCCCCCCCCCCCCC(=O)O)C(=O)N[C@H](C(=O)N[C@H](CCCCN)C(N)=O)C(c2ccccc2)c2ccccc2)NC1=O)C(c1ccccc1)c1ccccc1)[C@@H](C)O` [compound 158] (Isovaleryl-ETH[Dip]PCC[NMeK]([AEEA-AEEA-X1])[Dip][dK]-NH2; disulfide 6-7), for which, under setting [1], the IC50 lay in the range of 10 to 100 nM.

On to `COC(=O)CC[C@H](NC(=O)CC(C)C)C(=O)N(C)[C@H](C(=O)N[C@@H](Cc1c[nH]cn1)C(=O)N[C@H](C(=O)N1CCC[C@H]1C(=O)N[C@H]1CSSC[C@@H](C(=O)N(C)[C@@H](CCCCNC(=O)C[N+](C)(C)CCNC(=O)CCCCCCCCCCCCCCCCC(=O)O)C(=O)N[C@H](C(N)=O)C(c2ccccc2)c2ccccc2)NC1=O)C(c1ccccc1)c1ccccc1)[C@@H](C)O` [compound 186] (Isovaleryl-E(OMe)[NMeT]H[Dip]PCC[NMeK](X1)[Dip]-NH2; disulfide 6-7), for which the IC50 under setting [1] lay within 100 to 500 nM.

`CC(C)CC(=O)N[C@@H](CCC(=O)O)C(=O)N1CC[C@H](O)[C@H]1C(=O)N[C@@H](Cc1c[nH]cn1)C(=O)N[C@H](C(=O)N1CCC[C@H]1C(=O)N[C@H]1CSSC[C@@H](C(=O)N(C)[C@@H](CCCCNC(=O)CCCCCNC(=O)C[N+](C)(C)CCNC(=O)CCCCCCCCCCCCCCCCC(=O)O)C(=O)N[C@H](C(=O)N[C@H](CCCCN)C(N)=O)C(c2ccccc2)c2ccccc2)NC1=O)C(c1ccccc1)c1ccccc1` [compound 192] (Isovaleryl-E[Pro(3S-OH)]H[Dip]PCC[NMeK]([Ahx-X1])[Dip][dK]-NH2; disulfide 6-7): the IC50 under setting [1] was in the range of 10 to 100 nM.

For the compound `CCCCCCCCCCCCCCCC(=O)NCCCCCC(=O)NCCCC[C@@H](C(=O)N[C@H](C(N)=O)C(c1ccccc1)c1ccccc1)N(C)C(=O)[C@@H]1CSSC[C@H](NC(=O)[C@@H]2CCCN2C(=O)[C@@H](NC(=O)[C@H](Cc2cnc[nH]2)NC(=O)[C@H]([C@@H](C)O)N(C)C(=O)[C@H](CCC(=O)O)NC(=O)CC(C)C)C(c2ccccc2)c2ccccc2)C(=O)N1` [compound 172] (Isovaleryl-E[NMeT]H[Dip]PCC[NMeK]([Ahx-Palmitoyl])[Dip]-NH2; disulfide 6-7), under setting [1], the IC50 is 1 to 10 nM.

Take `CCCCCCCCCCCCCCCC(=O)NCCCCCC(=O)NCCCC[C@@H](C(=O)N[C@H](C(=O)N[C@H](CN)C(N)=O)C(c1ccccc1)c1ccccc1)N(C)C(=O)[C@@H]1CSSC[C@H](NC(=O)[C@@H]2CCCN2C(=O)[C@@H](NC(=O)[C@H](Cc2cnc[nH]2)NC(=O)[C@@H](NC(=O)[C@H](CCC(=O)O)NC(=O)CC(C)C)[C@@H](C)O)C(c2ccccc2)c2ccccc2)C(=O)N1` [compound 165] (Isovaleryl-ETH[Dip]PCC[NMeK]([Ahx-Palmitoyl])[Dip][dDap]-NH2; disulfide 6-7): the IC50 under setting [1] fell in the range of 1 to 10 nM.

Regarding `COC(=O)CC[C@H](NC(=O)CC(C)C)C(=O)N[C@H](C(=O)N[C@@H](Cc1c[nH]cn1)C(=O)N[C@H](C(=O)N1CCC[C@H]1C(=O)N[C@H]1CSSC[C@@H](C(=O)N[C@@H](CCCCNC(=O)CCCCCNC(=O)C[N+](C)(C)CCNC(=O)CCCCCCCCCCCCCCCCC(=O)O)C(=O)N[C@H](CC(=O)N[C@H](CCCCN)C(N)=O)Cc2ccccc2)NC1=O)C(c1ccccc1)c1ccccc1)[C@@H](C)O` [compound 315] (Isovaleryl-E(OMe)TH[Dip]PCCK([Ahx-X1])[β3hF][dK]-NH2; disulfide 6-7), under setting [2], the IC50 is 10 to 100 nM.
